From patent publication US11261179B2, “Small molecules” (University of Dundee, priority 2017, dated 2022)
“And” between values parts separate entries of the source, which are not always exact repeats. Equal entries are not always repeated. “Also recorded” adds a separate entry of the source.

What was measured:
[1] = molecular target: pVHL19 (VCB complex: VHL with Elongin B and Elongin C) (Homo sapiens, UniProt P40337); experiment: ITC titration against VCB, short VHL isoform; format: binding; settings: ITC; for Kd / ΔG / ΔH / α (cooperativity/avidity) / −TΔS: pVHL19; for n (stoichiometry): pVHL19, 25° C.
Description: Titrations were performed on an ITC200 micro-calorimeter (GE Healthcare). […] The final DMSO concentration was 0.15% v/v. VBC protein experiments were carried out in a buffer containing 20 mM Bis-tris propane, 150 mM NaCl, 1 mM TCEP, 0.15% v/v DMSO, pH 7.4. The titrations consisted of 19 injections of 2 μL compounds solution (150 μM, in the syringe) at a rate of 2 s/μL at 120 s time intervals into the VCB protein solution (20 μM, in the cell). An initial injection of compound solution (0.4 μL) was made and discarded during data analysis. All experiments were performed at 25° C., whilst stirring the syringe at 600 rpm. The data were fitted to a single binding site model to obtain the stoichiometry n, the dissociation constant Kd and the enthalpy of binding ΔH using the Microcal LLC ITC200 Origin software provided by the manufacturer.

[2] = molecular target: T1, pVHL30 (long isoform of VHL) (Homo sapiens, UniProt P40337); experiment: Western blot of VHL levels in HeLa cells; format: cell-based
T1 construct: endogenous in cells; host or cells: HeLa
Description: (§1) For single time point treatment experiments, cells were transferred in 6-well plates with 5×10^5 cells per well in 2 ml media in order to achieve 80% confluence the following day. Stock concentrations of compounds were prepared by solubilizing the powder in 100% v/v DMSO to the final desired stock concentration.
(§2) On the day of treatment, all compound samples were prepared as 100-fold concentrated compound solution using DMEM just before treatment. The experiment samples (20 μL) were added to the 6 well plate containing 2 ml of media. The final DMSO concentration was 0.1% v/v. Cells were incubated at 37° C. and 5% CO2 for the desired time before harvesting.
(§3) For time dependent treatment, cells were transferred in 6-well plates with 3×10^5 cells per well in 2 ml media. Samples were prepared as detailed above or the single time point experiments. Treatment was conducted at given time points prior to harvest.
Cells were transferred in 6-well plates with 5×10^5 cells per well in 2 ml media in order to achieve 80% confluence the day after. At t=0, MLN4924 was added into the desired wells at 3 μM final concentration and 0.1% v/v of DMSO. DMSO (0.1% v/v final conc.) was added to the remaining wells in order to match identical conc. of vehicle in all wells. At t=3 h, MG 132 was added into the desired wells at 50 μM final conc. and 0.1% v/v of DMSO. DMSO (0.1% v/v final conc.) was added to the remaining wells in order to achieve the same conc. of vehicle in all the wells. […] DMSO (0.1% v/v final conc.) was added to the remaining wells in order to obtain the same conc. of vehicle in all the wells. The total final concentration of DMSO was therefore 0.3% v/v. Plates were incubated for 4 h at 37° C. and 5% CO2 before harvesting.
Cells were transferred in 6-well plates with 5×10^5 cells per well in 2 ml media in order to achieve 80% confluence the day after. […] Plates were incubated for the desired time at 37° C. and 5% CO2 before harvesting.
For this experiments, cells were transferred in 6-well plates with 5×10^5 cells per well in 2 ml media in order to achieve 80% confluence the day after. […] Plates were incubated for the desired time at 37° C. and 5% CO2 before harvesting.
(§4) Cells were lysed in lysis buffer (20 mM Tris pH 8, 150 mM NaCl, 1% Triton x100) and a protease inhibitor cocktail (Roche) per 10 ml buffer. For protein extracts, the dishes were placed on ice. The media was aspirated and the tissue layer washed twice with ice-cold phosphate buffer saline (PBS). Lysis buffer (120 μl) was added and the cells detached from the surface with a cell scraper. After removal of the insoluble fraction by centrifugation, the protein concentration of the supernatant was determined by Pierce™ Coomassie (Bradford) Protein Assay Kit. Protein extracts were fractionated by SDS-PAGE on 4-12% Tris-Acetate NuPage® Novex® (Life Technologies) polyacrylamide gels and transferred to a nitrocellulose membrane using wet transfer. The membrane was then blocked with 5% w/v Bovine serum albumin (BSA) in Tris-buffered saline (TBS) with 0.1% w/v Tween-20. For detecting proteins the following primary antibodies in the given concentrations were used: anti-β-Actin (Cell Signaling Technology, 4970S, 13E5) 1:2000, anti-VHL (Cell Signaling Technology, #68547) 1:1000, anti-Hif-1α (BD Biosciences, 610959, clone 54) 1:1000, anti-hydroxy-HIF-1α (Hyp564) (Cell Signaling Techonology; #3434) 1:1000, anti-PHD2 (Bethyl Laboratories; A300-322A) 1:1000, anti-PHD3 (Bethyl Laboratories; A300-327A) 1:1000, anti-CRBN (Proteintech; 11435-1-AP) 1:1000.
(§5) Following incubation with a horseradish peroxidase-conjugated secondary antibody (Cell Signaling Technology), the signal was developed using enhanced chemiluminescence (ECL) Western Blotting Detection Kit (Amersham) on Amersham Hyperfilm ECL film (Amersham).
Band quantification was performed using ImageJ software and reported as relative amount as ratio of the each protein band relative to the lane's loading control. […]

[3] = tested on: HIF-1α / hydroxylated HIF-1α (Hdy-HIF-1α); experiment: Western blot of HIF-1α and Hdy-HIF-1α levels in HeLa cells; format: cell-based, Human; settings: HeLa, 1 μM, 10 h
Description: as §1, §2, §3, §4, §5
(§6) Band quantification was performed using ImageJ software and reported as relative amount as ratio of the each protein band relative to the lane's loading control. The values obtained were then normalized to 0.1% DMSO vehicle control.

pVHL30 = molecular target: T2, pVHL30 (Homo sapiens, UniProt P40337); experiment: Western blot of VHL levels in U2OS cells; format: cell-based; settings: for profile of cellular activity: 10 h, 1 nM-100 μM; for cellular efficacy at longer time points / time of treatment to complete degradation of pVHL30: time course
T2 construct: endogenous in cells; host or cells: U2OS
Description: as §1, §2, §3, §4, §5, §6

VCB complex = VCB complex (Homo sapiens, UniProt P40337); experiment: Size exclusion chromatography of VCB complex formation; format: binding; settings: SEC, VCB 50 μM, compound 30 μM
Description: SEC experiments were carried out in a AKTA pure system (GE Healthcare) at room temperature. The oligomeric state of the VCB complex in solution was analyzed by gel filtration in a buffer containing 20 mM Bis-Tris (pH 7), 150 mM NaCl and 1 mM 1,4-dithiothreitol (DTT) using a Superdex 200 Increase 10/300 GL column (GE Healthcare) calibrated with globular proteins of known molecular weight (GE Healthcare, 28-4038-41/42). […] Sample volume for each injection was 200 μL, and the flow rate was 0.5 mL/min. Peak elution was monitored using ultraviolet absorbance at 280 nm.

[4] = molecular target: T3, VCB (biotinylated VCB and His-VCB) (Homo sapiens, UniProt P40337); experiment: AlphaLISA proximity assay of ternary complex formation; format: binding; settings: VCB 20 nM each, 0.5 to 200 nM Homo-PROTAC
T3 construct: His tag (printed 'Hiss-VCB'); biotin (chemical labelling with NHS-PEG4-biotin); on the other VCB population
Description: The VCB complex was mixed with EZ-link NHS-PEG4-biotin (Thermo Scientific) in a 1:1 molar ratio and incubated at room temperature for 1 h. The reaction was quenched using 1 M Tris-HCl, pH 7.5, and unreacted NHS-biotin was removed with a PD-10 MiniTrap desalting column (GE Healthcare) equilibrated with 20 mM HEPES, pH 7.5, 150 mM NaCl and 1 mM DTT.
All assays were performed at room temperature in 384-well plates with a final assay volume of 25 μL per well; plates were sealed with transparent film between addition of reagents. All reagents were prepared as 5× stocks diluted in 50 mM HEPES, pH 7.5, 100 mM NaCl, 0.1% (w/v) bovine serum albumin and 0.02% (w/v) 3-[(cholamidopropyl)dimethylammonio]-1-propanesulfonate (CHAPS). Biotinylated VCB (20 nM final) and Hiss-VCB (20 nM final) were incubated with a range of Homo-PROTAC concentrations (0.5 to 200 nM; three-in-five serial dilution) for 1 h. Anti-His acceptor beads (PerkinElmer, 10 μg/mL final) were added and plates were incubated for another hour. Streptavidin-coated donor beads (PerkinElmer, 10 μg/mL final) were added and plates were incubated for a final 1 h. Plates were read on a PHERAstar FS (BMG Labtech) using an optic module with an excitation wavelength of 680 nm and emission wavelength of 615 nm. Intensity values were plotted against PROTAC concentration on a logo scale.

Chain of pVHL19 (VCB complex: VHL with Elongin B and Elongin C) (P40337 54-213): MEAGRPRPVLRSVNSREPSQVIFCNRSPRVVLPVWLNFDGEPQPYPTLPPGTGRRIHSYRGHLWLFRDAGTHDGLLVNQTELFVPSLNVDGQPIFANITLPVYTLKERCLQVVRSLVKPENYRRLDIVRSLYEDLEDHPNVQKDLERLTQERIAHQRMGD
Chain of pVHL19 (VCB complex: VHL with Elongin B and Elongin C) (Q15370 1-104 partner limits assumed): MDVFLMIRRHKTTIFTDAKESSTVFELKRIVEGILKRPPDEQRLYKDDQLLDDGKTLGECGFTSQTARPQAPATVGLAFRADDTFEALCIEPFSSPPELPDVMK
Chain of pVHL19 (VCB complex: VHL with Elongin B and Elongin C) (Q15369 17-112 partner limits assumed): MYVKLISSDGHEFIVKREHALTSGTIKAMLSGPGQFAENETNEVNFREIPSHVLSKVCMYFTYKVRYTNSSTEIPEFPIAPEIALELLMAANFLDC
T2 sequence (P40337 whole entry): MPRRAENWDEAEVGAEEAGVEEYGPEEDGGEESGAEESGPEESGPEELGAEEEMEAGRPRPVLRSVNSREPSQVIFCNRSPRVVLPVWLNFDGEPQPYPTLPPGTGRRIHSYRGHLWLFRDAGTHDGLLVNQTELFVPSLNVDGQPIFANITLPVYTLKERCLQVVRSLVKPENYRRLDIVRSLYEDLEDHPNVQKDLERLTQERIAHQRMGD
T1 sequence (P40337 whole entry, canonical isoform): as the sequence (P40337 whole entry) above
Chain of VCB complex (P40337 54-213 limits assumed): as the sequence (P40337 54-213) above
Chain of VCB complex (Q15370 1-104 partner limits assumed): as the sequence (Q15370 1-104 partner limits assumed) above
Chain of VCB complex (Q15369 17-112 partner limits assumed): as the sequence (Q15369 17-112 partner limits assumed) above
T3 sequence (P40337 54-213 limits assumed): as the sequence (P40337 54-213) above
T3 sequence (Q15370 1-104 partner limits assumed): as the sequence (Q15370 1-104 partner limits assumed) above
T3 sequence (Q15369 17-112 partner limits assumed): as the sequence (Q15369 17-112 partner limits assumed) above

SMILES | Kd [1] [nM] | ΔG [1] [kcal/mol] | ΔH [1] [kcal/mol] | α (cooperativity/avidity) [1] | −TΔS [1] [kcal/mol] | n (stoichiometry) [1] | degradation of pVHL over time ([2]; time course, also longer time points) | HIF-1α level [3] | profile of cellular activity (pVHL30) | cellular efficacy at longer time points (pVHL30) | time of treatment to complete degradation of pVHL30 (pVHL30) [h] | shift of VCB peak / ternary complex formation (VCB complex) | AlphaLISA intensity signal / complex formation [4] | depletion/degradation of VHL (pVHL30) ([2]; 1 μM, 10 h) | protein levels of Hdy-HIF-1α [3]
Cc1ncsc1-c1ccc(CNC(=O)[C@@H]2C[C@@H](O)CN2C(=O)[C@@H](NC(=O)COCCOCCOCCOCC(=O)N[C@H](C(=O)N2C[C@H](O)C[C@H]2C(=O)NCc2ccc(-c3scnc3C)cc2)C(C)(C)C)C(C)(C)C)cc1 [CM09, N^1,N^14-bis((S)-1-((2S,4R)-4-hydroxy-2-((4-(4-methylthiazol-5-yl)benzyl)carbamoyl)pyrrolidin-1-yl)-3,3-dimethyl-1-oxobutan-2-yl)-3,6,9,12-tetraoxatetradecanediamide] | 41 ± 15 | -10.3 ± 0.2 | -6.9 ± 0.3 | 4 | -3.5 ± 0.5 | 0.98 ± 0.09 | Incomplete degradation | slight increase | consistent profile of cellular activity | lost its cellular efficacy after 36 h | 2 | formation of a ternary complex eluting at identical retention volume | negligible levels of complex formation |  | 
Cc1ncsc1-c1ccc(CNC(=O)[C@@H]2C[C@@H](O)CN2C(=O)[C@@H](NC(=O)COCCOCCOCCOCCOCC(=O)N[C@H](C(=O)N2C[C@H](O)C[C@H]2C(=O)NCc2ccc(-c3scnc3C)cc2)C(C)(C)C)C(C)(C)C)cc1 [CM10, N^1,N^17-bis((S)-1-((2S,4R)-4-hydroxy-2-((4-(4-methylthiazol-5-yl)benzyl)carbamoyl)pyrrolidin-1-yl)-3,3-dimethyl-1-oxobutan-2-yl)-3,6,9,12,15-pentaoxaheptadecanediamide] | 32 ± 5 | -10.2 ± 0.1 | -9.4 ± 0.1 | 6 | -0.8 ± 0.2 | 0.7 and 0.73 ± 0.01 |  | slight increase | consistent profile of cellular activity | retained their efficacy | 2 | formation of a ternary complex eluting at identical retention volume | negligible levels of complex formation | total knockdown; also recorded: complete depletion | detectable albeit low increase
